Measurements taken from PubChem BioAssay (NCI).
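Five concentrations, 48 hours, 96-well plates. Abbreviation: GI50, concentration required for 50% inhibition of growth. TGI: total growth inhibition.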

What was measured:
Experiment in all cases: DTP human tumour cell line panel, 48 h
BT-549 breast = tested on: BT-549 breast
TK-10 renal = tested on: TK-10 renal
MDA-MB-231 breast = tested on: MDA-MB-231 breast
CAKI-1 renal = tested on: CAKI-1 renal
HS 578T breast = tested on: HS 578T breast
HCC-2998 colon = tested on: HCC-2998 colon
A498 renal = tested on: A498 renal
OVCAR-4 ovarian = tested on: OVCAR-4 ovarian
HL-60(TB) leukemia = tested on: HL-60(TB) leukemia
MOLT-4 leukemia = tested on: MOLT-4 leukemia
LOX IMVI melanoma = tested on: LOX IMVI melanoma
NCI/ADR-RES ovarian = tested on: NCI/ADR-RES ovarian
EKVX NSCLC = tested on: EKVX NSCLC
SK-MEL-2 melanoma = tested on: SK-MEL-2 melanoma
HOP-62 NSCLC = tested on: HOP-62 NSCLC
SK-MEL-28 melanoma = tested on: SK-MEL-28 melanoma
M14 melanoma = tested on: M14 melanoma
RPMI-8226 leukemia = tested on: RPMI-8226 leukemia
SK-MEL-5 melanoma = tested on: SK-MEL-5 melanoma
OVCAR-5 ovarian = tested on: OVCAR-5 ovarian
SF-539 CNS = tested on: SF-539 CNS
SF-295 CNS = tested on: SF-295 CNS
SK-OV-3 ovarian = tested on: SK-OV-3 ovarian
HCT-15 colon = tested on: HCT-15 colon
HOP-92 NSCLC = tested on: HOP-92 NSCLC
RXF 393 renal = tested on: RXF 393 renal
SNB-75 CNS = tested on: SNB-75 CNS
T-47D breast = tested on: T-47D breast
IGROV1 ovarian = tested on: IGROV1 ovarian
NCI-H23 lung = tested on: NCI-H23 lung
SN12C renal = tested on: SN12C renal
MCF7 breast = tested on: MCF7 breast
SR leukemia = tested on: SR leukemia
786-0 renal = tested on: 786-0 renal
HCT-116 colon = tested on: HCT-116 colon
DU-145 prostate = tested on: DU-145 prostate
KM12 colon = tested on: KM12 colon
ACHN renal = tested on: ACHN renal
OVCAR-3 ovarian = tested on: OVCAR-3 ovarian
A549 NSCLC = tested on: A549 NSCLC
MALME-3M melanoma = tested on: MALME-3M melanoma
UACC-62 melanoma = tested on: UACC-62 melanoma
COLO 205 colon = tested on: COLO 205 colon
PC-3 prostate = tested on: PC-3 prostate
MDA-MB-435 = tested on: MDA-MB-435
NCI-H226 lung = tested on: NCI-H226 lung
SNB-19 CNS = tested on: SNB-19 CNS
SF-268 CNS = tested on: SF-268 CNS
NCI-H460 lung = tested on: NCI-H460 lung
OVCAR-8 ovarian = tested on: OVCAR-8 ovarian
CCRF-CEM leukemia = tested on: CCRF-CEM leukemia
U251 CNS = tested on: U251 CNS
HT29 colon = tested on: HT29 colon
K-562 leukemia = tested on: K-562 leukemia
UO-31 renal = tested on: UO-31 renal
SW-620 colon = tested on: SW-620 colon
UACC-257 melanoma = tested on: UACC-257 melanoma

Oc1ccccc1/C=N/Nc1nc(N/N=C/c2ccccc2O)nc(N2CCOCC2)n1
GI50 (BT-549 breast): 5.19 µM | TGI (BT-549 breast): > 100 µM | GI50 (TK-10 renal): 44.9 µM | TGI (TK-10 renal): > 100 µM | GI50 (MDA-MB-231 breast): 2420 nM | TGI (MDA-MB-231 breast): 30.9 µM | GI50 (CAKI-1 renal): 4.52 µM | TGI (CAKI-1 renal): 46.5 µM | GI50 (HS 578T breast): 3.24 µM | TGI (HS 578T breast): 44.1 µM | GI50 (HCC-2998 colon): 7.65 µM | TGI (HCC-2998 colon): > 100 µM | GI50 (A498 renal): 1090 nM | TGI (A498 renal): 8.58 µM | GI50 (OVCAR-4 ovarian): 2480 nM | TGI (OVCAR-4 ovarian): 7.56 µM | GI50 (HL-60(TB) leukemia): 193 nM | TGI (HL-60(TB) leukemia): > 100 µM | GI50 (MOLT-4 leukemia): 1550 nM | TGI (MOLT-4 leukemia): > 100 µM | GI50 (LOX IMVI melanoma): 276 nM | TGI (LOX IMVI melanoma): 873 nM | GI50 (NCI/ADR-RES ovarian): 685 nM | TGI (NCI/ADR-RES ovarian): 9.37 µM | GI50 (EKVX NSCLC): 3.28 µM | TGI (EKVX NSCLC): 32 µM | GI50 (SK-MEL-2 melanoma): 6.06 µM | TGI (SK-MEL-2 melanoma): > 100 µM | GI50 (HOP-62 NSCLC): 3.51 µM | TGI (HOP-62 NSCLC): 23 µM | GI50 (SK-MEL-28 melanoma): 3.2 µM | TGI (SK-MEL-28 melanoma): 49.9 µM | GI50 (M14 melanoma): 3.22 µM | TGI (M14 melanoma): > 100 µM | GI50 (RPMI-8226 leukemia): 2780 nM | TGI (RPMI-8226 leukemia): > 100 µM | GI50 (SK-MEL-5 melanoma): 5.86 µM | TGI (SK-MEL-5 melanoma): > 100 µM | GI50 (OVCAR-5 ovarian): 6.41 µM | TGI (OVCAR-5 ovarian): > 100 µM | GI50 (SF-539 CNS): 7.29 µM | TGI (SF-539 CNS): > 100 µM | GI50 (SF-295 CNS): 7.67 µM | TGI (SF-295 CNS): > 100 µM | GI50 (SK-OV-3 ovarian): 3.7 µM | TGI (SK-OV-3 ovarian): 13.8 µM | GI50 (HCT-15 colon): 241 nM | TGI (HCT-15 colon): 16.2 µM | GI50 (HOP-92 NSCLC): 1650 nM | TGI (HOP-92 NSCLC): 6.01 µM | GI50 (RXF 393 renal): 272 nM | TGI (RXF 393 renal): 2450 nM | GI50 (SNB-75 CNS): 1820 nM | TGI (SNB-75 CNS): 5.26 µM | GI50 (T-47D breast): 3.34 µM | TGI (T-47D breast): > 100 µM | GI50 (IGROV1 ovarian): 966 nM | TGI (IGROV1 ovarian): > 100 µM | GI50 (NCI-H23 lung): 4.31 µM | TGI (NCI-H23 lung): 20.1 µM | GI50 (SN12C renal): 18.3 µM | TGI (SN12C renal): > 100 µM | GI50 (MCF7 breast): 2390 nM | TGI (MCF7 breast): > 100 µM | GI50 (SR leukemia): 322 nM | TGI (SR leukemia): > 100 µM | GI50 (786-0 renal): 709 nM | TGI (786-0 renal): 15.3 µM | GI50 (HCT-116 colon): 823 nM | TGI (HCT-116 colon): > 100 µM | GI50 (DU-145 prostate): 6.09 µM | TGI (DU-145 prostate): > 100 µM | GI50 (KM12 colon): 33.2 µM | TGI (KM12 colon): > 100 µM | GI50 (ACHN renal): 1580 nM | TGI (ACHN renal): 44.9 µM | GI50 (OVCAR-3 ovarian): 3.42 µM | TGI (OVCAR-3 ovarian): > 100 µM | GI50 (A549 NSCLC): 2880 nM | TGI (A549 NSCLC): 52.2 µM | GI50 (MALME-3M melanoma): 8.69 µM | TGI (MALME-3M melanoma): > 100 µM | GI50 (UACC-62 melanoma): 24.5 µM | TGI (UACC-62 melanoma): > 100 µM | GI50 (COLO 205 colon): 5.53 µM | TGI (COLO 205 colon): > 100 µM | GI50 (PC-3 prostate): 3.61 µM | TGI (PC-3 prostate): > 100 µM | GI50 (MDA-MB-435): 9.53 µM | TGI (MDA-MB-435): > 100 µM | GI50 (NCI-H226 lung): 3.92 µM | TGI (NCI-H226 lung): 20.4 µM | GI50 (SNB-19 CNS): 3.14 µM | TGI (SNB-19 CNS): 14.9 µM | GI50 (SF-268 CNS): 16.9 µM | TGI (SF-268 CNS): > 100 µM | GI50 (NCI-H460 lung): 2300 nM | TGI (NCI-H460 lung): 17.4 µM | GI50 (OVCAR-8 ovarian): 3.75 µM | TGI (OVCAR-8 ovarian): 34.5 µM | GI50 (CCRF-CEM leukemia): 537 nM | TGI (CCRF-CEM leukemia): > 100 µM | GI50 (U251 CNS): 3.06 µM | TGI (U251 CNS): 22.3 µM | GI50 (HT29 colon): 5.89 µM | TGI (HT29 colon): > 100 µM | GI50 (K-562 leukemia): 683 nM | TGI (K-562 leukemia): > 100 µM | GI50 (UO-31 renal): 372 nM | TGI (UO-31 renal): 18.7 µM | GI50 (SW-620 colon): 1780 nM | TGI (SW-620 colon): 23.4 µM | GI50 (UACC-257 melanoma): 6.53 µM | TGI (UACC-257 melanoma): > 100 µM
